Active and inactive are the calls of the source. The rule behind the calls is not given here.
Columns and labels:
[1] = molecular target: T1, Bromodomain testis-specific protein (Homo sapiens, UniProt Q58F21); test: Binding affinity to BRDT BD1 (unknown origin) assessed as dissociation constant by BROMOscan analysis
[2] = molecular target: T1, Bromodomain testis-specific protein; test: Binding affinity to BRDT BD2 (unknown origin) assessed as dissociation constant by BROMOscan analysis
[3] = molecular target: T2, Bromodomain-containing protein 4 (Homo sapiens, UniProt O60885); test: Binding affinity to BRD4 BD2 (unknown origin) assessed as dissociation constant by BROMOscan analysis
[4] = molecular target: T1, Bromodomain testis-specific protein; test: Binding affinity to N-terminal hexa histidine-tagged human BRDT BD1 extracted from Escherichia coli BL21 (DE3) cells assessed as inhibition constant incubated for 1 hrs by fluorescence polarization assay
[5] = molecular target: T2, Bromodomain-containing protein 4; test: Binding affinity to BRD4 BD1 (unknown origin) assessed as dissociation constant by BROMOscan analysis
[6] = molecular target: T2, Bromodomain-containing protein 4; test: Binding affinity to N-terminal hexa histidine-tagged human BRD4 BD1 extracted from Escherichia coli BL21 (DE3) cells assessed as inhibition constant incubated for 1 hrs by fluorescence polarization assay
[7] = molecular target: T1, Bromodomain testis-specific protein; details: dose 100.0 µM, time 30.0 min
[8] = molecular target: T1, Bromodomain testis-specific protein; details: dose 100.0 µM, time 30.0 min; remark: listed apart in the source
[9] = system: MM1.S; test: Downregulation of c-MYC expression in human MM1.S cells measured after 6 hrs by Western blotting analysis; type: functional, cell-based; details: dose 0.1-10 µM
[10] = molecular target: T1, Bromodomain testis-specific protein; test: Binding affinity to BRDT BD2 (unknown origin) at W293 residue

| Compound | Ki [4] [nM] | other results |
| --- | --- | --- |
| CCn1c2c(c(=O)[nH]c1=O)C(c1ccc(C)cc1)C(C(=O)OCc1ccccc1)=C(C)N2 (stereo not drawn) | 40 | Kd [1]: 770 nM; Kd [2]: 67 nM; Kd [3]: 65 nM; Kd [5]: 380 nM; Ki [6]: 150 nM |
| CCn1c2c(c(=O)[nH]c1=O)C1C(=C(C)N2)C(=O)OCCCOc2ccccc21 (stereo not drawn) | 9200 | – |
| CCn1c2c(c(=O)[nH]c1=O)C1C(=C(C)N2)C(=O)NCc2ccccc2OCCCOc2ccccc21 (stereo not drawn) | > 3800 | Ki [6]: > 3800 nM |
| CCn1c2c(c(=O)[nH]c1=O)C1C(=C(C)N2)C(=O)OCc2ccccc2OCCCOc2cc1ccc2C (stereo not drawn) | 12000 | – |
| CCn1c2c(c(=O)[nH]c1=O)C1C(=C(C)N2)C(=O)OCc2ccccc2OCCOc2cc(C)ccc21 (stereo not drawn) | – | ΔTm [7]: 3.4 °C; ΔTm [8]: 8.9 °C; Activity [9]: Dose-dependent-effect |
| CCn1c2c(c(=O)[nH]c1=O)C1C(=C(C)N2)C(=O)OCc2ccccc2OCCCOc2cc(C)ccc21 (stereo not drawn) | 1300 | – |
| CCn1c2c(c(=O)[nH]c1=O)C1C(=C(C)N2)C(=O)OCCCOc2cc(C)ccc21 (stereo not drawn) | 8100 | – |
| CCn1c2c(c(=O)[nH]c1=O)C1C(=C(C)N2)C(=O)OCc2ccccc2OCCCOc2ccccc21 (stereo not drawn) | 1100 | ΔTm [7]: 2.8 °C; ΔTm [8]: 13 °C; Activity [10]: Active |
| CCn1c2c(c(=O)[nH]c1=O)C1C(=C(C)N2)C(=O)OCc2ccccc2OCCCCOc2ccccc21 (stereo not drawn) | 1900 | – |
| CCn1c2c(c(=O)[nH]c1=O)C1C(=C(C)N2)C(=O)OCc2ccccc2OCCOc2ccccc21 (stereo not drawn) | 5300 | – |
| CCn1c2c(c(=O)[nH]c1=O)C1C(=C(C)N2)C(=O)OCc2cccc(c2)OCCCOc2cc1ccc2C (stereo not drawn) | > 3800 | Ki [6]: > 3800 nM |
| CCn1c2c(c(=O)[nH]c1=O)C1C(=C(C)N2)C(=O)OCc2ccccc2OCCOc2cccc1c2 (stereo not drawn) | > 3800 | – |
| Cc1sc2c(c1C)C(c1ccc(Cl)cc1)=N[C@@H](CC(=O)OC(C)(C)C)c1nnc(C)n1-2 | – | Activity [9]: Dose-dependent-effect |
| CCn1c2c(c(=O)[nH]c1=O)C1C(=C(C)N2)C(=O)OCc2ccccc2OCCOc2cc1ccc2C (stereo not drawn) | > 3800 | – |
| CCn1c2c(c(=O)[nH]c1=O)C1C(=C(C)N2)C(=O)OCCCCOc2cc(C)ccc21 (stereo not drawn) | 1700 | – |
| CCn1c2c(c(=O)[nH]c1=O)C1C(=C(C)N2)C(=O)OCCCCOc2ccccc21 (stereo not drawn) | 11000 | – |

From ChEMBL document CHEMBL6177957, “Macrocyclic dihydropyridine analogs as pan-BET BD2-preferred inhibitors” (Eur J Med Chem, 2025)
